Data set [1] addresses Sodium channel protein type 5 subunit alpha (Homo sapiens, UniProt Q14524). As to the kind of experiment: Inhibition of NaV1.5 channel (unknown origin) by patch express-based electrophysiology assay.
The target of data set [2] is Voltage-gated inwardly rectifying potassium channel KCNH2 (Homo sapiens, UniProt Q12809). Nature of the data set: Inhibition of human ERG channel by patch express-based electrophysiology assay.
Data set [3] addresses Transient receptor potential cation channel subfamily V member 4 (Homo sapiens, UniProt Q9HBA0). As to the kind of experiment: Inhibition of TRPV4 (unknown origin) by FLIPR assay.
In data set [4] the target is Voltage-dependent L-type calcium channel subunit alpha-1C (Homo sapiens, UniProt Q13936). As to the kind of experiment: Inhibition of CaV1.2 channel (unknown origin) by patch express-based electrophysiology assay.
Sequence of Voltage-dependent L-type calcium channel subunit alpha-1C (Q13936 whole entry): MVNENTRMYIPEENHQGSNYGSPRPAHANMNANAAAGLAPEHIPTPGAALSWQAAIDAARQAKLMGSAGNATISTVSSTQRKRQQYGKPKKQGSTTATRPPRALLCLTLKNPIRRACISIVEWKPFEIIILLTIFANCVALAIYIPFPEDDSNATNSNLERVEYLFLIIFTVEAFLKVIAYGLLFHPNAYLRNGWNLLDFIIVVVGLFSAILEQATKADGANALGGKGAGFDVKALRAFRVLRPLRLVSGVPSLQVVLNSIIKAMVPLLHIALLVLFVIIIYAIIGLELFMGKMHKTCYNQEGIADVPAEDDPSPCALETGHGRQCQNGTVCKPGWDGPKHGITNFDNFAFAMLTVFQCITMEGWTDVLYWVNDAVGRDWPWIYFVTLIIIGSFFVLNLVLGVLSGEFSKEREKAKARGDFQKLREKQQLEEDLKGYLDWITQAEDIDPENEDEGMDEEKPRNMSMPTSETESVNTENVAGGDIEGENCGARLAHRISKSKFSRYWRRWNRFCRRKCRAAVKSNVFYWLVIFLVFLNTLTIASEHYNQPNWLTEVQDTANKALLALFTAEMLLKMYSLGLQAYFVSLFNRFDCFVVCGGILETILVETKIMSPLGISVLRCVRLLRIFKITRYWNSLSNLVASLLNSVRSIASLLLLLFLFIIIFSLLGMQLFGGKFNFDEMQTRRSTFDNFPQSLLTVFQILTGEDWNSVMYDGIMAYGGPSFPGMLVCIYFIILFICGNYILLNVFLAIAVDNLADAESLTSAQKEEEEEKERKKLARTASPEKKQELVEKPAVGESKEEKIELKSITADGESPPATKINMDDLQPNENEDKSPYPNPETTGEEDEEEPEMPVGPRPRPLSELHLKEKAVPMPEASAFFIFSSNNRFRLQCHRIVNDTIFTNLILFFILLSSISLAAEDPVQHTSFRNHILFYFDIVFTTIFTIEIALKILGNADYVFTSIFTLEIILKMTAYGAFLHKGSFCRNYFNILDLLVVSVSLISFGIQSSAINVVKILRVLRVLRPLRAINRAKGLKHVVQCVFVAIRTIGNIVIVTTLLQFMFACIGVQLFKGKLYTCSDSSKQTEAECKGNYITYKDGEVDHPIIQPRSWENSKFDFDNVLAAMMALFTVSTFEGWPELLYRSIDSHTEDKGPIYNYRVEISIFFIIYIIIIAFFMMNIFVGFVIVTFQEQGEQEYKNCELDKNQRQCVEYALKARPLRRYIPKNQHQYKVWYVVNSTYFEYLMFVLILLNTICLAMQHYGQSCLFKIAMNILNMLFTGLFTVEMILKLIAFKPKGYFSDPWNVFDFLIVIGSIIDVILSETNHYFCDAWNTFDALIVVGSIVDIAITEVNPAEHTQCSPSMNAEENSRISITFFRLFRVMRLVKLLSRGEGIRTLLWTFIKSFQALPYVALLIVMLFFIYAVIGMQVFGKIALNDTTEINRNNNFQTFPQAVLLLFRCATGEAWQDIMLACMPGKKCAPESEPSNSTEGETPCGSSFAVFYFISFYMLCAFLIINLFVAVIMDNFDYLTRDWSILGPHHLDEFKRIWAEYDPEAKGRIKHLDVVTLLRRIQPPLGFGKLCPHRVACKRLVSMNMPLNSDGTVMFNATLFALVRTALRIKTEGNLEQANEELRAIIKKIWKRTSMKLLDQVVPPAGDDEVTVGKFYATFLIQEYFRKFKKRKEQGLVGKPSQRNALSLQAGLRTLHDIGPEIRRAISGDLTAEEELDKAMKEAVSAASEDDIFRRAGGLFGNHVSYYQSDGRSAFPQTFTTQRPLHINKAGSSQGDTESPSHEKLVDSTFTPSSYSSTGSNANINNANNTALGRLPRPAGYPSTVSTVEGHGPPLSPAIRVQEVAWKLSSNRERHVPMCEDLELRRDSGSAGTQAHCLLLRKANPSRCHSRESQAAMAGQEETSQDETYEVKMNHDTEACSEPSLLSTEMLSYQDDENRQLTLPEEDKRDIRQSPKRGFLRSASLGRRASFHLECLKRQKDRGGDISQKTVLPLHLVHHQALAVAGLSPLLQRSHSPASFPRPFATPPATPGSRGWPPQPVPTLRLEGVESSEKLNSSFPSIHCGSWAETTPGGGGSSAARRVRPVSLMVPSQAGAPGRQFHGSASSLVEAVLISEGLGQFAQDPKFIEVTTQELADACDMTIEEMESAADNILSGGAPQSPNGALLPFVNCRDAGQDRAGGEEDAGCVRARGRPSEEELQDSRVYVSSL
The target in data set [5] is Transient receptor potential cation channel subfamily A member 1 (Homo sapiens, UniProt O75762). As to the kind of experiment: Inhibition of TRPA1 (unknown origin) by FLIPR assay.
Data set [6] concerns the target Transient receptor potential cation channel subfamily V member 1 (Homo sapiens, UniProt Q8NER1). Nature of the data set: Inhibition of TRPV1 (unknown origin) by FLIPR assay.
Data set [7] can be described thus: Oral bioavailability in rat at 1.04 mg/kg. In kind it is ADME, organism-based. The following applies: in vivo.
Another data set has as its system Rattus norvegicus. As to the kind of experiment: Dose normalized AUC in rat at 1.04 mg/kg, iv. The data set is classed as ADME, organism-based. Set-up: dose 1.04 mg/kg, route intravenous. The note with it: in vivo.
Data set [8] can be described thus: Clearance in rat at 1.04 mg/kg, iv. The data set is classed as ADME, organism-based. Set-up: dose 1.04 mg/kg, route intravenous. The following applies: in vivo.
The nature of data set [9]: Mean residence time in rat at 1.04 mg/kg, iv. In kind it is ADME, organism-based. Also on record: dose 1.04 mg/kg, route intravenous. The following applies: in vivo.
Data set [10] in a line: Cmax in rat at 1.04 mg/kg, iv. The data set is classed as ADME, organism-based. The following applies: in vivo. Set-up: dose 1.04 mg/kg, route intravenous.
Data set [11] concerns the target T1, Short transient receptor potential channel 6 (Homo sapiens, UniProt Q9Y210).
T1 sequence (Q9Y210 whole entry): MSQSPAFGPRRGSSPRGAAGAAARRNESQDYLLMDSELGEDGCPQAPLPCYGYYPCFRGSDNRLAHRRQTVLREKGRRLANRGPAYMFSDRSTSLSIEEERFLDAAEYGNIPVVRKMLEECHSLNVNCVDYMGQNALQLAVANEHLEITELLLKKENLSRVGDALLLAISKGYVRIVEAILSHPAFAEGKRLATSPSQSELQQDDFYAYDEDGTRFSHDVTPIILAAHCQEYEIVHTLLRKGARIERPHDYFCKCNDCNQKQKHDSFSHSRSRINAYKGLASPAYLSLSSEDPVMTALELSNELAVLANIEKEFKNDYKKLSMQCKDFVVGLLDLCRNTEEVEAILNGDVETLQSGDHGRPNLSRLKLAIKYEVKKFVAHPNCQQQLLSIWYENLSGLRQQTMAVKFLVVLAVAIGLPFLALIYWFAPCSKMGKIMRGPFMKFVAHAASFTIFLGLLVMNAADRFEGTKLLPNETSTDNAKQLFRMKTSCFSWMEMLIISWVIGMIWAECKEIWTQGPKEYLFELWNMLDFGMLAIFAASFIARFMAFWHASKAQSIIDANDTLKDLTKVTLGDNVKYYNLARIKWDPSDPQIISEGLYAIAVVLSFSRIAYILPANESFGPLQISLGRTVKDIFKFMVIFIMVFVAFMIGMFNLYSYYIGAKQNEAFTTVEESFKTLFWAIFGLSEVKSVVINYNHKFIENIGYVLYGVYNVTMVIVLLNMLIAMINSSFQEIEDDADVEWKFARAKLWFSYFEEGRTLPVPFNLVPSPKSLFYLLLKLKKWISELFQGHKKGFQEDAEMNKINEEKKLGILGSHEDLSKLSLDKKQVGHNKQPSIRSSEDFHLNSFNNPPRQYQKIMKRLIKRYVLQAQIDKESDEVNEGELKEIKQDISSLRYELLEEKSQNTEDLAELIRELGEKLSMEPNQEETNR
As to the kind of experiment: Inhibition of human recombinant TRPC6 expressed in HEK293-MSRII cells assessed as carbachol-stimulated Ca2+/Na+ influx after 10 mins by FLIPR assay. In kind it is cell-based.

Data set [12] concerns the target T2, Short transient receptor potential channel 3 (Homo sapiens, UniProt Q13507).
T2 sequence (Q13507 whole entry): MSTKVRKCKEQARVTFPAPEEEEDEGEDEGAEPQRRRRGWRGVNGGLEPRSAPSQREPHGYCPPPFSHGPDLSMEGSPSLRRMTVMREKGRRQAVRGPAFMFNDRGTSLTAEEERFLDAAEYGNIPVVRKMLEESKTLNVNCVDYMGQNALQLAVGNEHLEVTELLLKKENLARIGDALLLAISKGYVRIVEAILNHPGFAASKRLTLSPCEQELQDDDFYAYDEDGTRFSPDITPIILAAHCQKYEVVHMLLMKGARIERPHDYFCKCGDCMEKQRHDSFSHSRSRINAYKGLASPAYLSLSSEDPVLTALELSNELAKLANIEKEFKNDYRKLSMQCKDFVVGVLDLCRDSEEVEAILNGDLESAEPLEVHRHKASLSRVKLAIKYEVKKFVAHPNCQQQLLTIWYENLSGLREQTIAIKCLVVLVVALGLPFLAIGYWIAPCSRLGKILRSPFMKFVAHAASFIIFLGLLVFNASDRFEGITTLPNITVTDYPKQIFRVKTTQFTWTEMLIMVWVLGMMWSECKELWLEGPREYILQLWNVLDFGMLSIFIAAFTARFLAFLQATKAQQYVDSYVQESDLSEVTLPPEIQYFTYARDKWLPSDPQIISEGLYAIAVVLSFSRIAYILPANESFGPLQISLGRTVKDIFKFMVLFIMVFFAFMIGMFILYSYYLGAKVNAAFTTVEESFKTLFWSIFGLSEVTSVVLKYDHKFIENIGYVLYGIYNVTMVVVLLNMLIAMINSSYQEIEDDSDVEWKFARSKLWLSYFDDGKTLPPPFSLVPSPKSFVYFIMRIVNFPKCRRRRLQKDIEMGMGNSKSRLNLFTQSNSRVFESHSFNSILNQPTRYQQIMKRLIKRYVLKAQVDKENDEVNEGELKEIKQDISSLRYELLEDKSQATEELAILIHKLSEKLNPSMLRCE
As to the kind of experiment: Inhibition of human recombinant TRPC3 expressed in HEK293-MSRII cells assessed as carbachol-stimulated Ca2+/Na+ influx after 10 mins by FLIPR assay. In kind it is cell-based.

Sequence of Transient receptor potential cation channel subfamily V member 4 (Q9HBA0 whole entry): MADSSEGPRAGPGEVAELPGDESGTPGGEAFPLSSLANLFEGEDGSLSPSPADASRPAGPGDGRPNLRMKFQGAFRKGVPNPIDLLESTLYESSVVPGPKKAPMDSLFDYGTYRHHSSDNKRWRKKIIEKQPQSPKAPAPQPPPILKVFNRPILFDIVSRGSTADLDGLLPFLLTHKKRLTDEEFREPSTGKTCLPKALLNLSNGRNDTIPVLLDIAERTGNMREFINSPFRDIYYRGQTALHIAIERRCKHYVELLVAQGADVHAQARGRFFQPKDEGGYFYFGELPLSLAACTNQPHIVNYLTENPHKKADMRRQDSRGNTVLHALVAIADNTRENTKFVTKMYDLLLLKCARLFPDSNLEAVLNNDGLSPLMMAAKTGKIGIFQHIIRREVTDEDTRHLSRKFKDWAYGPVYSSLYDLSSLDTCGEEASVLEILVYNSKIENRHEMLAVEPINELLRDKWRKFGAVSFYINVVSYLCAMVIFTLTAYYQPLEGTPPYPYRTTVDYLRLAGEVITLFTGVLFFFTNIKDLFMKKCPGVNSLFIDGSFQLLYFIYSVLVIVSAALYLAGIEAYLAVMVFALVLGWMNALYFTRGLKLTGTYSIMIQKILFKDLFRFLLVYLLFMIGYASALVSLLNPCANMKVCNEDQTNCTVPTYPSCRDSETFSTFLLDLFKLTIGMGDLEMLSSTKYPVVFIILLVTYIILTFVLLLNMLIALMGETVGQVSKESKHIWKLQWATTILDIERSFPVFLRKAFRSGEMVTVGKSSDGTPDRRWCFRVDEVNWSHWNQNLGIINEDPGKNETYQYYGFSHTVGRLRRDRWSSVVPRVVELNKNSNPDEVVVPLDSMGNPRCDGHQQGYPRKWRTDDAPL
Sequence of Voltage-gated inwardly rectifying potassium channel KCNH2 (Q12809 whole entry): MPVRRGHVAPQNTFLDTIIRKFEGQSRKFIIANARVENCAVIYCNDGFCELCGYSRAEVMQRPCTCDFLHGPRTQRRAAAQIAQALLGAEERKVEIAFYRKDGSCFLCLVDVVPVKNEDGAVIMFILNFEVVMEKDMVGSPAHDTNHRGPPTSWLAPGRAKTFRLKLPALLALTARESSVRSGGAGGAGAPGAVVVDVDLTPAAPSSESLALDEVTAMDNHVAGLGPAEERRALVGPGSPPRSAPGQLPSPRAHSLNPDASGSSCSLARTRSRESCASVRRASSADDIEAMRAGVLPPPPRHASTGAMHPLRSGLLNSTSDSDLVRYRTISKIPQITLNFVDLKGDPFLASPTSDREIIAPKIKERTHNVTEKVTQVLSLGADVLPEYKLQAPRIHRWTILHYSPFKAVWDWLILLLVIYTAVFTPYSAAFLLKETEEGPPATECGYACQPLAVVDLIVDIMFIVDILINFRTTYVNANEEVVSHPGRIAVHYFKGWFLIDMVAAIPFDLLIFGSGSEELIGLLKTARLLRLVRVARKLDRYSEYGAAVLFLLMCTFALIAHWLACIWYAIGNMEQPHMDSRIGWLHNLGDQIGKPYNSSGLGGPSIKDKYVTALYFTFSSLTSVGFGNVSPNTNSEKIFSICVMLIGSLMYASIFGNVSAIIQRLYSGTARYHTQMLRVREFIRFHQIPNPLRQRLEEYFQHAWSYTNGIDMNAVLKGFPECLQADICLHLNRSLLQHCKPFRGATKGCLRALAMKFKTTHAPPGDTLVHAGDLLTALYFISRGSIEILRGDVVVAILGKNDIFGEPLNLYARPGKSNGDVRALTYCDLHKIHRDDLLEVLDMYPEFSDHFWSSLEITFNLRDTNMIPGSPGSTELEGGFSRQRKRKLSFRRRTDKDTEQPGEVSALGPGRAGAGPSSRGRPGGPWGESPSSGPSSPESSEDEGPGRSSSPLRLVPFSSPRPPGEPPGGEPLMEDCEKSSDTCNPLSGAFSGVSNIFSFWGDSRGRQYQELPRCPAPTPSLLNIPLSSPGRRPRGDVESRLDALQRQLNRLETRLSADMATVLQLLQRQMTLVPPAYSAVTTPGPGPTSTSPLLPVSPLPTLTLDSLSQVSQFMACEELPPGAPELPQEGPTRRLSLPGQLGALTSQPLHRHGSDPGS
Sequence of Transient receptor potential cation channel subfamily V member 1 (Q8NER1 whole entry): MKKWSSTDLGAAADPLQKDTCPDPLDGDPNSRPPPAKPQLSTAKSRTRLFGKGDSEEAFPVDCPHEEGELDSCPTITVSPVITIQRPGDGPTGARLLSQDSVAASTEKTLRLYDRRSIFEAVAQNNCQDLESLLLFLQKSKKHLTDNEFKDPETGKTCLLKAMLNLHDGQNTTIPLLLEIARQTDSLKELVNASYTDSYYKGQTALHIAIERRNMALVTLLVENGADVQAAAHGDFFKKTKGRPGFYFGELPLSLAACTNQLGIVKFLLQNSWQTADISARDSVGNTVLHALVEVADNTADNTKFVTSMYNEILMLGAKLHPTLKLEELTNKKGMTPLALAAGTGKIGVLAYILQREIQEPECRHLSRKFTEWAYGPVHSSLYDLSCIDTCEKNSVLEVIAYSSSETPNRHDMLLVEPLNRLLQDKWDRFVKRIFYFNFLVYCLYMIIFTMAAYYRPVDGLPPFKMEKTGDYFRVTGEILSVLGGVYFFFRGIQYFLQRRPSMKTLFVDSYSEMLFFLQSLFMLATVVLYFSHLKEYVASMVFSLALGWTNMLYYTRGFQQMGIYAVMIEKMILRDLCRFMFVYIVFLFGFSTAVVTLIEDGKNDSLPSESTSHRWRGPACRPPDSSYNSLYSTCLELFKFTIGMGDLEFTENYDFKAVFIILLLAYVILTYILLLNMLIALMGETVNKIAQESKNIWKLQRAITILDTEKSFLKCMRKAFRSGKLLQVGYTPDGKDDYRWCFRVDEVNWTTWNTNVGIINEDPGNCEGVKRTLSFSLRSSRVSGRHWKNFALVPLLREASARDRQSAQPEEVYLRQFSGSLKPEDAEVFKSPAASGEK

The IC50 is the concentration that inhibits the measured activity by half. In general, bioavailability refers to the share of a dose that reaches the circulation, judged against a reference dose that is usually intravenous. Usually clearance stands for a measure of how efficiently the substance is removed, as volume per time. A high value points to a high capacity for elimination. The term MRT denotes the average time that molecules of a dose stay in the body. Usually Cmax stands for the maximum level reached in the sampled fluid or tissue. As to `Cc1ccc(Nc2nc(C(=O)N3CCCC(C)C3C)cs2)cc1` (stereo not drawn), the IC50 was 50 µM in [1]; over 50 µM in [2]; 6.3 µM in data set [3]; 10 µM in data set [4]; 8 µM in [5]; 1.26 µM in data set [6]. Besides, the half-maximal inhibitory concentration (IC50) in data set [11] stood at 0.08 µM; in data set [12], 0.25 µM. Also, in data set [7], the bioavailability was under 1%. This compound showed an AUC/dose in the data set with Rattus norvegicus of 0.2 kg·L·h. This compound also showed a clearance in data set [8] of 75 mL/min/kg. Moreover, the mean residence time MRT in data set [9] came out at 2.8 h. In addition, the highest level in [10] (Cmax) was 310 ng/mL.

The record behind these values is ChEMBL document CHEMBL2417435, “The discovery of potent blockers of the canonical transient receptor channels, TRPC3 and TRPC6, based on an anilino-thiazole pharmacophore” (Bioorg Med Chem Lett, 2013).
